Entries after “also recorded” stand apart in the source; their conditions may differ.
Assays:
[1] = target: T1, thromboxane synthetase (Rattus norvegicus, UniProt P49430); conditions: in the rat; cited from earlier work
T1 sequence (P49430 1-533): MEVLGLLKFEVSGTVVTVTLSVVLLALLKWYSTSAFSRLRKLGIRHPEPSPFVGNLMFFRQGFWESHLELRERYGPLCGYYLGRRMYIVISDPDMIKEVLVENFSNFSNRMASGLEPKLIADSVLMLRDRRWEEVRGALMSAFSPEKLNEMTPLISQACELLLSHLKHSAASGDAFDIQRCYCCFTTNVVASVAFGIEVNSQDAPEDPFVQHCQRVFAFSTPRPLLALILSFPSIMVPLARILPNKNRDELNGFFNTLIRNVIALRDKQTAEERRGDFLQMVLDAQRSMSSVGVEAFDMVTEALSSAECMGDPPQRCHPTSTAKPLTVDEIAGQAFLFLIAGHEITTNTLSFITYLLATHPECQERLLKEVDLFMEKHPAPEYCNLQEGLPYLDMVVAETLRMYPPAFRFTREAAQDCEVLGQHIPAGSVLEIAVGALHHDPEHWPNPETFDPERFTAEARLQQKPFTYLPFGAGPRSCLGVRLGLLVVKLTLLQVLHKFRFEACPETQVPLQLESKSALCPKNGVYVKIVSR

[2] = tested on: anesthetized swine; assay: Prophylaxis of the acute hemodynamic response to intravenous fluorocarbon emulsion with cyclooxygenase inhibitors
Text: All animals were fully anesthetized (ketamine-sodium pentobarbital), placed on positive pressure ventilation, and instrumented for determination of pulmonary artery pressure, cardiac output, ECG (electrocardiogram), right atrial pressure, and whole blood samples collections. Changes in skin color were also quantified using a relative color scale ranging from normal (light pink) to darker shades of pink and purple. Continuous electrocardiographs and oscillographic recordings of blood pressures were made. At least 30 minutes of baseline data were collected before intravascular administration of the substances. After control recordings, infusion of the pigs was carried out with 3 ml/kg body weight of either fluorocarbon emulsion as Imagent®BP (90% or 100% perfluorooctylbromide) or saline at a rate of 2 ml/min i.v. over 15 minutes.
A series of experiments was conducted to evaluate the effects of prophylactic treatment with cyclooxygenase inhibitors on the acute hemodynamic response to intravenous injection of 90% Imagent®BP in anesthetized swine. […] Animals receiving prophylaxis were administered indomethacin (0.5 mg/kg p.o.) prior to administration of the test article. Test swine were treated prophylactically with indomethacin, ibuprofen and aspirin.

[3] = tested on: conscious swine; assay: Delayed febrile response (core body temperature) to intravenous lipid dispersion in conscious swine, with or without prophylaxis; type: in vivo; conditions: for effect on febrile reaction to fluorocarbon emulsion: prophylactic treatment, dose not given
Protocol: Swine were instrumented 48 hours prior to study for determination of core body temperature using a catheter-tipped thermistor, and for intravenous injection using an axillary vein catheter. On the day of study, core body temperature was determined at baseline and at regular intervals for 6 h after intravenous injection of Imagent®BP.

[4] = tested on: tumor-bearing animals; conditions: cited from earlier work

Compound: O=C(O)CCCCCCCn1ccnc1 [N(7-carboxyheptyl)imidazole]
- inhibition of thromboxane synthetase [1]: act effectively to inhibit thromboxane synthetase

Compound: COc1ccc2c(c1)c(CC(=O)O)c(C)n2C(=O)c1ccc(Cl)cc1 [indomethacin, 1-(pchlorobenzoyl)-5-methoxy-2-methylindole-3-acetic acid]
- effect on acute hemodynamic response (mPAP) to Imagent BP ([2]; indomethacin i.v. bolus 10 mg/kg then 6 mg/kg/hr, Imagent BP 90% 3 ml/kg i.v.): prevent the acute hemodynamic response; also recorded: virtually prevented all of the hemodynamic reactions

Compound: methylprednisone
- effect on febrile response to Imagent BP ([3]; oral 5 mg/kg 12 h and 2 h before injection (methylprednisone), 5 mg/kg): attenuated febrile response
- effect on febrile response to Imagent BP ([3]; oral 5 mg/kg 12 h and 2 h before injection (methylprednisone), listed as Methylprednisone, 5 mg/kg): attenuates the response

Compound: CC(=O)Oc1ccccc1C(=O)O [aspirin, acetylsalicylic acid]
- effect on increased mPAP response to Fluosol (20% fluorocarbon emulsion) ([2]; aspirin pretreatment vs Fluosol alone, FIG. 2): decreased response
- blood cell counts (erythrocytes, leukocytes, platelets) after Imagent BP ([2]; aspirin prophylaxis, oral 5 mg/kg 1 h before): nearly identical to that seen with the saline control
- effect on acute hemodynamic response (mPAP) to Imagent BP ([2]; oral 5 mg/kg 1 h before Imagent BP (90%) 3 ml/kg i.v., 5 mg/kg): prevent the acute hemodynamic response; also recorded: appeared to completely block any increases in mPAP
- effect on febrile reaction to fluorocarbon emulsion [3]: not prevented

Compound: CC(=O)Nc1ccc(O)cc1 [acetaminophen]
- effect on febrile reaction to fluorocarbon emulsion [3]: not prevented

Compound: CC(C)Cc1ccc(C(C)C(=O)O)cc1 (racemic) [ibuprofen, (±)-2-(p-isobutylphenyl)propionic acid]
- effect on acute hemodynamic response (mPAP) to Imagent BP ([2]; oral 20 mg/kg 1 h before Imagent BP 3 ml/kg i.v., 20 mg/kg): prevent the acute hemodynamic response
- effect on acute hemodynamic response (mPAP) to Imagent BP ([2]; oral 20 mg/kg 1 h before Imagent BP 3 ml/kg i.v., listed as Ibuprofen, 20 mg/kg): significantly attenuated the mPAP responses
- symptoms in reaction to intravenous fluorocarbon emulsion [4]: alleviated
- effect on febrile response to Imagent BP ([3]; oral 20 mg/kg 1 h before injection, 6 h time course): significantly suppressed

Compound: COc1ccc2cc([C@H](C)C(=O)O)ccc2c1 [naproxen]
- effect on febrile response to Imagent BP ([3]; oral 5 mg/kg 1 h before injection (naproxen), 5 mg/kg): attenuated febrile response

Compound: O=C(O)CCCCCc1cccc2cncn12 [CGS 13080, imidazo(1,5-pyridine-5-hexanoic acid)]
- inhibition of thromboxane synthetase [1]: act effectively to inhibit thromboxane synthetase

Compound: O=C(O)c1ccc(OCCn2ccnc2)cc1 [dazoxiben, 4-(2-(1 H-imidazol-1 yl)ethoxy)benzoic acid]
- inhibition of thromboxane synthetase [1]: act effectively to inhibit thromboxane synthetase

Compound: Cn1ccnc1 [1-methyl-imidazole]
- inhibition of thromboxane synthetase [1]: act effectively to inhibit thromboxane synthetase

Source: patent US6361792B1, “Lipid dispersions and methods of use” (Alliance Pharmaceutical Corp., priority 1987, dated 2002)
